Common to all, as to format: physicochemical
Data set [1] in a line: Stability study of the amorphous form (HPLC purity, XRPD). The note with it: over three months; HPLC purity (FIG. 6), XRPD (FIG. 7). As to the method: FIG. 6 depicts a stability study of the amorphous form based on its HPLC purity over 3 months. FIG. 7 depicts a stability study of the amorphous form based on its XRPD over 3 months. Solid samples were analyzed by XRPD. XRPD analysis was conducted on a PANalytical Empyrean or a Thermo ARL X'TRA X-ray powder diffractometer using Cu Kα radiation at 1.54 Å.

Data set [2] is described as follows: Dissolution of amorphous form in reconstitution formulations.
Data set [3] is described as follows: Solubility of spray-dried amorphous form in ethanol. The note with it: amorphous form obtained by spray-drying. Here is the method:
An amorphous form of Compound 1 was obtained from a spray-drying process of Compound 1 as depicted in FIG. 5. The spray-drying process comprised: (1) mixing Compound 1 with methanol at 25° C. to yield a suspension; (2) heating to 121° C.; (3) spray-drying under the conditions in Table 1 or Table 2 to yield an amorphous solid form; and (4) collecting the resulting solids. Alternatively, the spray drying process comprised: (1) mixing Compound 1 with acetone to yield a solution; (2) spray-drying under the conditions in Table 3 to yield an amorphous solid form; and (3) collecting the resulting solids.

Each structure is given as a SMILES string.

On to `CNC(=O)c1ccc(Nc2nc(OC3CCCC3)c3c(-c4ccc5nc(C)oc5c4)c[nH]c3n2)c(OC)c1` [amorphous Compound 1, 4-((4-(cyclopentyloxy)-5-(2-methylbenzo[d]oxazol-6-yl)-7H-pyrrolo[2,3-d]pyrimidin-2-yl)amino)-3-methoxy-N-methylbenzamide], for which the “Stability (HPLC purity and XRPD)” value in data set [1] was “chemically and physically stable”. In addition, the “Dissolution Time” value amounted to 1 min in data set [2] (17 mg amorphous Compound 1, 0.105 g EtOH, 0.656 g PEG-300, 0.239 g Saline); 1 min in data set [2] (#1 4.6 mL EtOH added to 700 mg amorphous Compound 1, #2 26.3 mL (25.1:1.2) PEG-300:Ethanol, #3 10.3 mL Saline); 9 min in data set [2] (#1 PEG-300/EtOH, #2 Saline). Further, in data set [3], the Solubility in ethanol entry was “readily soluble”.

For the origin of these results see patent publication US9434735B2, “Amorphous form of 4-((4-(cyclopentyloxy)-5-(2-methylbenzo[d]oxazol-6-yl)-7h-pyrrolo[2,3-d]pyrimidin-2-yl)amino)-3-methoxy-n-methylbenzamide, compositions thereof and methods of their use” (Signal Pharmaceuticals, LLC, priority 2014, dated 2016).
